The source of these data is publication PMC12373846, “Hemoglobin as a pseudoperoxidase and drug target for oxidative stress-related diseases” (Signal Transduction and Targeted Therapy, 2025).

The term pEC50 denotes the EC50 on a negative log10 scale, so that one unit is a factor of ten. As a reminder, the pIC50 is the negative decadic logarithm of the IC50, by convention in mol/L. Lower therefore signals a high IC50.

pEC50, pIC50: −log10 of the molar value.

For one assay, the system named is GPx. In words: GPx colorimetric assay. Format: biochemical. The settings on record: standard GPx assay. As for the experimental part: To assess the GPx activity, the reaction was prepared in a 96-well plate by adding glutathione reductase and glutathione solution, GPx enzyme (5µl, final concentration 60 U/ml), and the drug (1 µl of KDS12025 and HTEPB) to a total volume of 100 µl per well, followed by manufactural protocol (Abcam, ab102530). The plate was incubated at room temperature for 15 min to allow pre-reactions and drug interactions to occur. Following the incubation, the reaction was initiated by adding cumene hydroperoxide as the substrate to each well. The absorbance at 340 nm was measured in kinetic mode for 10–20 min, and the rate of NADPH consumption was used to calculate GPx activity, reflecting the enzyme’s ability to reduce the hydroperoxide substrate in the presence of the test compound.

The target in assay [1] is T1, HRP (Armoracia rusticana, UniProt P00433).
T1 sequence (P00433 31-353): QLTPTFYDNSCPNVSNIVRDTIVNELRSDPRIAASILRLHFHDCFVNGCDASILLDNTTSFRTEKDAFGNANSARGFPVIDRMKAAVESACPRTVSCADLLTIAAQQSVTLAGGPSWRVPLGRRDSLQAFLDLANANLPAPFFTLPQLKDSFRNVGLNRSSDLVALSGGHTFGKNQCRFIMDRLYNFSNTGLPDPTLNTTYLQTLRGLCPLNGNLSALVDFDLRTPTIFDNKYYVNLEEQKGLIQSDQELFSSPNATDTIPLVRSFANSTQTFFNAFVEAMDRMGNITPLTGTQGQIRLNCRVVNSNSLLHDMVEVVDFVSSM
In words: Bubbling liberation (oxygen release) with HRP. Format: biochemical, horseradish. The settings on record: HRP + H2O2, Fig. 2g. As for the experimental part: (§1) The effects of bubbling with DMSO, HTPEB, and KDS12025 were evaluated. To measure the degree of bubbling quantitatively, the reactions were conducted in sealed tubes connected to an inverted cylinder submerged in a water bath to record the time and volume of the bubbles produced. […] Vehicle, HTPEB, and KDS12025 were added to assess their effects. A similar procedure was followed for Hb.

Assay [2] has as its target T1, HRP. In words: ROS-Glo H2O2 assay with HRP. It counts as biochemical, horseradish. The note with it: for fold change in H2O2 decomposition by HRP: 30-min window, Fig. 2b. As for the experimental part:
Hb (Sigma‒Aldrich, H7379), H2O2 (Sigma‒Aldrich, H1009), and Amplex Red reagents (Invitrogen, A12222) were obtained for the study. A 4 μM H2O2 solution was prepared in 50 mM sodium phosphate buffer (pH 7.2). Then, 49 μl of this mixture was mixed with 1 μl of the test compound in DMSO or distilled water. The mixture was combined with an assay mixture of Amplex Red reagent (20 mM stock to 0.1 mM) and HRP (200 U/ml stock to 0.2 U/ml) and added to the wells at 50 μl/well. After a 60-min incubation at 37 °C, resorufin production was quantified via a microplate fluorescence reader (SpectraMax iD5, Molecular Devices) at ex/em = 535/580 nm. […] For the ROS-Glo assay, the H2O2 substrate solution and ROS-Glo detection solution were prepared according to the manufacturer’s instructions. 10 μM H2O2 and drugs were prepared as in the Amplex Red assay, with HRP, Hb, CAT, or GPx added as needed. The mixture was added to the wells at 100 μl/well and incubated for 60 min at 37 °C. H2O2 substrate solution was added, and the mixture was incubated at room temperature for 30 min. After the H2O2 substrate solution was added and incubated at room temperature for 30 min, the ROS-Glo detection solution was added, and the mixture was incubated for 15 min. Luminescence was measured via iD5 microplate readers. […] The U/ml was calculated on the basis of the amount of H2O2 reduced by Hb during the reaction, using μg/ml and U/mg.
To evaluate the extent of peroxidase function facilitation by HTPEB (1 μM) and KDS12025 (1 μM) in HRP (0.2 U/ml) and Hb (10 μg/ml), we used the ROS-Glo assay over 30 and 60 min. The fold change was calculated by dividing the delta values during the 30-min reaction for the vehicle over drug conditions.

The subject of assay [3] is primary cultured hippocampal astrocytes. In words: DCFDA intracellular ROS assay. It counts as cell-based, mouse. The note with it: for Aβ-induced ROS level (DCFDA), normalized to control: Aβ 5μM + compound 10μM, Fig. 3e; for relative ROS level (DCFDA): Aβ42+KDS12025 10 μM, Fig. 6c. On the procedure: Primary hippocampal astrocytes were obtained from postnatal day 0‒2 (P0‒2) C57BL/6 mice as previously described.[73] The hippocampal tissue was dissected free of meninges, minced, and dissociated into a single-cell suspension by trituration. The cells were grown in Dulbecco’s modified Eagle’s medium supplemented with D-glucose (4500 mg/L), L-glutamine, sodium pyruvate (110 mg/L), 10% heat-inactivated horse serum, 10% heat-inactivated fetal bovine serum, and 1000 U/ml penicillin‒streptomycin. The cells were maintained at 37 °C in a humidified atmosphere containing 5% CO2.
The intracellular ROS levels of astrocytes were determined via 2′,7′- dichlorodihydrofluorescein diacetate (DCFDA; Thermo Fisher). Primary cultured hippocampal astrocytes were seeded into black 96-well plates (Ibidi) at a density of 5 × 10⁴ cells per well. The plates were incubated with oligomerized Aβ42 in the presence of KDS12008, KDS12017, KDS12025, HTPEB (10 µM each), and sodium pyruvate (1 mM). These cells were subsequently washed with Ca^2+ and Mg^2+-containing PBS, followed by the application of 30 µM DCFDA and incubation at 37 °C for 30 min in a dark incubator. The mean fluorescence intensity of each well was measured via iD5 microplate readers at 485 nm and 530 nm. The fluorescence values were calculated by subtracting the blank readings and normalizing them to those of the control group.

The test system of a further assay is CAT. In words: Bubbling liberation (oxygen release) with CAT. It counts as biochemical. The note with it: CAT + H2O2, Fig. 2g. On the procedure: as §1
Assay [4] in a line: DPPH radical scavenging assay. The settings on record: Fig. S1e. On the procedure:
In a 96-well microplate, samples (20 μl) at concentrations ranging from 0.1 to 100 μM were mixed with 80 μL of 50 mM sodium phosphate buffer (pH 7.2) and 100 μL of DPPH (1,1-diphenyl-2-picrylhydrazyl) solution (250 μM in methanol) and incubated for 30-min in the dark. Each sample was quantified using a microplate fluorescence reader (SpectraMax iD5, Molecular Devices) at absorbance (517 nm). Edaravone was used as a positive control. The radical scavenging activity was estimated using the following equation: sample absorbance / control absorbance ×100. The dose-response curve, EC50 for the DPPH, was calculated and determined by fitting data with GraphPad Prism software. The fitting method had no special handling of outliers.
For orientation: DPPH is a stable violet radical that fades when it is reduced.

On to `O=C(O)c1cc(NCCc2ccc(C(F)(F)F)cc2)ccc1O` [HTPEB, 2-hydroxy-5-[2-(4-trifluoromethyl-phenyl)-ethylamino]-benzoic acid, reference compound], for which the “effect on GPx activity” value with GPx is reported as “no enhancement”. For the same compound, the “bubbles per 1 × 1 mm^2 area” value at HRP [1] came to 9.0±1.0; in the assay on CAT, 84.5±9.957. For the same compound, at HRP [2] (Fig. 1e, read-out: EC50, ROS-Glo assay with replenishing HRP), the pEC50 is 5.60. Moreover, the “tau value, reaction time-response of HRP with HTPEB” value at HRP [2] (Fig. S1b) turned out to be 8.57 min. Also, on HRP [2], the “fold change in H2O2 decomposition by HRP” value was 3.769±0.7911. Besides, the “Aβ-induced ROS level (DCFDA), normalized to control” value in assay [3] is 112.0±8.321. Besides, the pIC50 in assay [4] is 4.72.
Consider `CN(C)c1ccc(NCCc2ccc(C(F)(F)F)cc2)cc1.Cl` [KDS12008, N^1,N^1-dimethyl-N^4-(4-(trifluoromethyl)phenethyl)benzene-1,4-diamine hydrochloride salt], for which, in assay [3], the “Aβ-induced ROS level (DCFDA), normalized to control” value was found to be 96.78±7.989.
In the case of `CNc1ccc(NCCc2ccc(C(F)(F)F)cc2)cc1.Cl` [KDS12017, N^1-methyl-N^4-(4-(trifluoromethyl)phenethyl)benzene-1,4-diamine hydrochloride salt], the “Aβ-induced ROS level (DCFDA), normalized to control” value in assay [3] came to 109.6±6.466.
As for `CNc1ccc(NCCc2ccccc2OC)cc1.Cl` [KDS12025, N^1-(2-methoxyphenethyl)-N^4-methylbenzene-1,4-diamine hydrochloride salt], the “effect on GPx activity” value in the assay on GPx is on record as “did not affect other peroxidases”. The entries for the “bubbles per 1 × 1 mm^2 area” value on HRP [1] and in the assay with CAT were 7.3±0.947 and 92.0±6.622, respectively. At HRP [2], the “fold change in H2O2 decomposition by HRP” value is recorded as 5.642±0.5747. For the same compound, the “Aβ-induced ROS level (DCFDA), normalized to control” value in assay [3] amounted to 110.3±5.804. For the same compound, the results for the “relative ROS level (DCFDA)” value in assay [3] (Hbβ-shRNA astrocytes) and in assay [3] (Sc-shRNA astrocytes) were 134.1±5.185 and 105.8±2.173, respectively. Besides, the pIC50 in assay [4] is 3.81.
